Earlier results as cited in patent publication US20260345512A1, “TRANSDERMAL DELIVERY OF DEXTROMETHORPHAN” (SHINKEI THERAPEUTICS, INC., priority 2022, published 2026).

Assays:
[1] = dextromethorphan alone
[2] = without enhancer

Structure (SMILES) | adverse reactions reported with use of the individual component [1] | transdermal delivery rate relative to beta estradiol [2]
COc1ccc2c(c1)[C@]13CCCC[C@@H]1[C@H](C2)N(C)CC3 [dextromethorphan] | drowsiness, dizziness, nervousness or restlessness, nausea, vomiting, and stomach pain | 
C[C@]12CC[C@H]3[C@@H](CCC4=CC(=O)CC[C@@]43C)[C@@H]1CC[C@@H]2O [testosterone] |  | three orders of magnitude higher
